In PubChem BioAssay AID248 (DTP/NCI, 2004):
Values joined by “and” are separate entries in the source; they are usually repeats but may differ in a detail not shown here. Equal entries are not always repeated. Toxic doses and inconclusive results are not listed.

System: L1210 leukemia ip in BDF1 mice, survival T/C
Assay: NCI In Vivo Anticancer Drug Screen. Data for tumor model L1210 Leukemia (intraperitoneal) in B6D2F1 (BDF1) mice
Settings: endpoint: mean survival time, higher = longer survival
Summary of the method: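 Tumor cells were implanted, animals were treated, and survival was followed. The result divides the treated measurement by the vehicle-control measurement.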

[1] = dose: 25.0 mg/kg/injection, schedule: Q01DX009 (ip), vehicle: saline
[2] = dose: 50.0 mg/kg/injection, schedule: Q01DX009 (ip), vehicle: saline
[3] = dose: 100.0 mg/kg/injection, schedule: Q04DX003 (ip), vehicle: Klucel (hydroxypropylcellulose) (HPC)
[4] = dose: 200.0 mg/kg/injection, schedule: Q04DX003 (ip), vehicle: Klucel (hydroxypropylcellulose) (HPC)
[5] = dose: 400.0 mg/kg/injection, schedule: Q04DX003 (ip), vehicle: Klucel (hydroxypropylcellulose) (HPC)
[6] = dose: 50.0 mg/kg/injection, schedule: Q01DX001 (ip), vehicle: saline
[7] = dose: 100.0 mg/kg/injection, schedule: Q01DX001 (ip), vehicle: saline
[8] = dose: 200.0 mg/kg/injection, schedule: Q01DX001 (ip), vehicle: saline
[9] = dose: 400.0 mg/kg/injection, schedule: Q01DX001 (ip), vehicle: saline
[10] = dose: 100.0 mg/kg/injection, schedule: Q01DX001 (ip), vehicle: other
[11] = dose: 200.0 mg/kg/injection, schedule: Q01DX001 (ip), vehicle: other
[12] = dose: 400.0 mg/kg/injection, schedule: Q01DX001 (ip), vehicle: other
[13] = dose: 100.0 mg/kg/injection, schedule: Q01DX009 (ip), vehicle: Klucel (hydroxypropylcellulose) (HPC)
[14] = dose: 200.0 mg/kg/injection, schedule: Q01DX009 (ip), vehicle: Klucel (hydroxypropylcellulose) (HPC)
[15] = dose: 50.0 mg/kg/injection, schedule: Q01DX009 (ip), vehicle: saline with Tween-80
[16] = dose: 100.0 mg/kg/injection, schedule: Q01DX009 (ip), vehicle: saline with Tween-80
[17] = dose: 200.0 mg/kg/injection, schedule: Q01DX009 (ip), vehicle: saline with Tween-80
[18] = dose: 100.0 mg/kg/injection, schedule: Q04DX003 (ip), vehicle: saline with Tween-80
[19] = dose: 200.0 mg/kg/injection, schedule: Q04DX003 (ip), vehicle: saline with Tween-80
[20] = dose: 400.0 mg/kg/injection, schedule: Q01DX009 (ip), vehicle: Klucel (hydroxypropylcellulose) (HPC)

Compound: CCC(C)C(CCCCN1CCCC1)(CNC(=O)CN(CC)CC)c1cccc2ccccc12 (stereo unspecified)
- T/C (dose: 12.5 mg/kg/injection, schedule: Q01DX009 (ip), vehicle: saline): 95 % of control
- T/C (dose: 12.5 mg/kg/injection, schedule: Q04DX003 (ip), vehicle: saline): 92 % of control
- T/C [1]: 101 % of control
- T/C (dose: 25.0 mg/kg/injection, schedule: Q04DX003 (ip), vehicle: saline): 93 % of control
- T/C [2]: 106 % of control
- T/C (dose: 50.0 mg/kg/injection, schedule: Q04DX003 (ip), vehicle: saline): 92 % of control

Compound: CSc1ncc(CO)c(Nc2ccccc2Cl)n1
- T/C [3]: 103 % of control
- T/C [4]: 103 % of control
- T/C [5]: 95 % of control

Compound: CN(C)CCC1(c2ccccc2)CCN(C)C1=O (stereo unspecified)
- T/C (dose: 75.0 mg/kg/injection, schedule: Q01DX001 (ip), vehicle: carboxymethylcellulose (CMC)): 95 % of control
- T/C (dose: 150.0 mg/kg/injection, schedule: Q01DX001 (ip), vehicle: carboxymethylcellulose (CMC)): 95 % of control

Compound: CSC(=S)NNC(=O)c1cccc([N+](=O)[O-])c1
- T/C (dose: 6.25 mg/kg/injection, schedule: Q04DX003 (ip), vehicle: saline sonified): 95 % of control
- T/C (dose: 12.5 mg/kg/injection, schedule: Q04DX003 (ip), vehicle: saline sonified): 100 % of control
- T/C (dose: 25.0 mg/kg/injection, schedule: Q04DX003 (ip), vehicle: saline sonified): 101 % of control

Compound: Nc1ccc(S(=O)(=O)O)c2ccccc12
- T/C [6]: 94 % of control
- T/C [7]: 94 % of control
- T/C [8]: 103 % of control
- T/C [9]: 94 % of control

Compound: CCOC(=O)c1cnc(C)nc1Nc1ccccc1
- T/C [3]: 97 % of control
- T/C [4]: 103 % of control
- T/C [5]: 108 % of control

Compound: CC(=O)[C@H]1CC[C@H]2[C@@H]3C[C@H](C)C4=CC(=O)CC[C@]4(C)[C@@]3(F)[C@@H](O)C[C@]12C
- T/C (dose: 12.5 mg/kg/injection, schedule: Q04DX002 (ip), vehicle: Klucel (hydroxypropylcellulose) (HPC)): 102 % of control
- T/C (dose: 25.0 mg/kg/injection, schedule: Q04DX002 (ip), vehicle: Klucel (hydroxypropylcellulose) (HPC)): 105 % of control
- T/C (dose: 50.0 mg/kg/injection, schedule: Q04DX002 (ip), vehicle: Klucel (hydroxypropylcellulose) (HPC)): 102 % of control
- T/C (dose: 100.0 mg/kg/injection, schedule: Q04DX003 (ip), vehicle: steriod suspending solution): 96 % of control
- T/C (dose: 200.0 mg/kg/injection, schedule: Q04DX003 (ip), vehicle: steriod suspending solution): 105 % of control
- T/C (dose: 400.0 mg/kg/injection, schedule: Q04DX003 (ip), vehicle: steriod suspending solution): 102 % of control

Compound: CCCCCCCCCCCCSC(=O)Nc1ccc(C(=O)OCC)cc1
- T/C (dose: 100.0 mg/kg/injection, schedule: Q04DX002 (ip), vehicle: Klucel (hydroxypropylcellulose) (HPC)): 95 % of control
- T/C (dose: 200.0 mg/kg/injection, schedule: Q04DX002 (ip), vehicle: Klucel (hydroxypropylcellulose) (HPC)): 116 % of control
- T/C (dose: 400.0 mg/kg/injection, schedule: Q04DX002 (ip), vehicle: Klucel (hydroxypropylcellulose) (HPC)): 92 % of control

Compound: CC1C(Cl)(Cl)C1(C)/C=C/C1C(C)(C)C1(Cl)Cl (stereo unspecified)
- T/C [10]: 260 % of control
- T/C [7]: 106 % of control
- T/C (dose: 178.0 mg/kg/injection, schedule: Q01DX001 (ip), vehicle: saline): 101 % of control
- T/C [11]: 117 % of control
- T/C [8]: 108 % of control
- T/C (dose: 267.0 mg/kg/injection, schedule: Q01DX001 (ip), vehicle: saline): 97 % of control
- T/C [12]: 202 % of control
- T/C [9]: 95 % of control and 97 % of control
- T/C (dose: 600.0 mg/kg/injection, schedule: Q01DX001 (ip), vehicle: saline): 88 % of control

Compound: O=Cc1ccc(N2CCCCC2)cc1
- T/C [13]: 100 % of control
- T/C [3]: 101 % of control
- T/C [14]: 107 % of control
- T/C [4]: 95 % of control
- T/C [5]: 89 % of control

Compound: COc1ccc(/C=N/NC(=O)C[n+]2ccccc2)cc1
- T/C [15]: 91 % of control
- T/C [16]: 112 % of control
- T/C [17]: 88 % of control

Compound: O=CNc1cc([N+](=O)[O-])cc([N+](=O)[O-])c1O
- T/C [3]: 104 % of control
- T/C [4]: 100 % of control
- T/C [5]: 93 % of control

Compound: O=[N+]([O-])c1cc(/C=N\Nc2ccccn2)ccc1Cl
- T/C [3]: 112 % of control
- T/C [4]: 101 % of control
- T/C [5]: 101 % of control

Compound: CC(N=CN(C)C)c1cccc2ccccc12 (stereo unspecified)
- T/C (dose: 75.0 mg/kg/injection, schedule: Q01DX009 (ip), vehicle: saline with Tween-80): 102 % of control
- T/C [18]: 97 % of control
- T/C (dose: 150.0 mg/kg/injection, schedule: Q01DX009 (ip), vehicle: saline with Tween-80): 112 % of control
- T/C [19]: 102 % of control
- T/C (dose: 300.0 mg/kg/injection, schedule: Q01DX009 (ip), vehicle: saline with Tween-80): 112 % of control

Compound: c1ccc(P(CCP(CCP(c2ccccc2)c2ccccc2)c2ccccc2)CCP(c2ccccc2)c2ccccc2)cc1 (stereo unspecified)
- T/C (dose: 100.0 mg/kg/injection, schedule: Q04DX002 (ip), vehicle: saline with Tween-80): 90 % of control
- T/C (dose: 100.0 mg/kg/injection, schedule: Q04DX002 (ip), vehicle: saline): 101 % of control
- T/C [3]: 95 % of control and 101 % of control
- T/C (dose: 200.0 mg/kg/injection, schedule: Q04DX002 (ip), vehicle: saline with Tween-80): 96 % of control
- T/C (dose: 200.0 mg/kg/injection, schedule: Q04DX002 (ip), vehicle: saline): 96 % of control
- T/C [4]: 96 % of control and 102 % of control
- T/C (dose: 400.0 mg/kg/injection, schedule: Q04DX002 (ip), vehicle: saline with Tween-80): 93 % of control
- T/C (dose: 400.0 mg/kg/injection, schedule: Q04DX002 (ip), vehicle: saline): 101 % of control
- T/C [5]: 93 % of control

Compound: NC(=S)NNC=O
- T/C [3]: 95 % of control
- T/C [4]: 92 % of control
- T/C [5]: 100 % of control

Compound: CCOC(=O)CCc1c(C(=O)OCC)[nH]c(C)c1C(=O)C(=O)OC
- T/C (dose: 25.0 mg/kg/injection, schedule: Q04DX003 (ip), vehicle: Klucel (hydroxypropylcellulose) (HPC)): 101 % of control
- T/C (dose: 50.0 mg/kg/injection, schedule: Q04DX003 (ip), vehicle: Klucel (hydroxypropylcellulose) (HPC)): 98 % of control
- T/C (dose: 100.0 mg/kg/injection, schedule: Q01DX001 (ip), vehicle: Klucel (hydroxypropylcellulose) (HPC)): 95 % of control
- T/C [3]: 103 % of control
- T/C (dose: 200.0 mg/kg/injection, schedule: Q01DX001 (ip), vehicle: Klucel (hydroxypropylcellulose) (HPC)): 93 % of control
- T/C (dose: 400.0 mg/kg/injection, schedule: Q01DX001 (ip), vehicle: Klucel (hydroxypropylcellulose) (HPC)): 90 % of control

Compound: CC(/C=N/NC(=O)NO)=N\NC(=O)NO
- T/C [10]: 98 % of control
- T/C [16]: 98 % of control
- T/C (dose: 100.0 mg/kg/injection, schedule: Q04DX003 (ip), vehicle: other): 112 % of control
- T/C [11]: 98 % of control
- T/C [17]: 97 % of control
- T/C (dose: 200.0 mg/kg/injection, schedule: Q04DX003 (ip), vehicle: other): 102 % of control
- T/C [12]: 104 % of control
- T/C (dose: 400.0 mg/kg/injection, schedule: Q01DX009 (ip), vehicle: saline with Tween-80): 104 % of control
- T/C (dose: 400.0 mg/kg/injection, schedule: Q04DX003 (ip), vehicle: other): 98 % of control

Compound: Cc1ccc(C(=O)C[S+](C)C)c(C)c1
- T/C [1]: 98 % of control
- T/C [2]: 95 % of control
- T/C [18]: 102 % of control

Compound: O=C(Nc1ccccc1)OCC(CN1CCCCC1)OC(=O)Nc1ccccc1 (stereo unspecified)
- T/C (dose: 12.5 mg/kg/injection, schedule: Q01DX009 (ip), vehicle: saline with Tween-80): 97 % of control
- T/C (dose: 25.0 mg/kg/injection, schedule: Q01DX009 (ip), vehicle: saline with Tween-80): 99 % of control
- T/C [15]: 99 % of control
- T/C [16]: 86 % of control
- T/C [18]: 98 % of control
- T/C [17]: 91 % of control
- T/C [19]: 90 % of control

Compound: Nc1ccc(S(=O)(=O)Nc2cccc3ccccc23)cc1
- T/C [13]: 100 % of control
- T/C [3]: 90 % of control
- T/C [14]: 99 % of control
- T/C [4]: 92 % of control
- T/C [20]: 101 % of control
- T/C [5]: 95 % of control

Compound: Cc1cccc(Cl)c1NC(N)=O
- T/C [13]: 102 % of control
- T/C [3]: 103 % of control
- T/C [14]: 102 % of control
- T/C [4]: 94 % of control
- T/C [20]: 97 % of control
- T/C [5]: 95 % of control

Compound: O=C(CCCC(=O)NNC(=O)NC(=O)C(Cl)(Cl)Cl)NNC(=O)NC(=O)C(Cl)(Cl)Cl
- T/C [6]: 108 % of control
- T/C [7]: 96 % of control
- T/C [8]: 102 % of control
- T/C [9]: 102 % of control
